Experimental data taken from US5164513A, “Imidazole derivative” (SS Pharmaceutical Co., Ltd., priority 1987, dated 1992).
≈ marks a conversion by molar mass, not a printed value.

What was measured:
Assay type in all cases: cell-based
Saccharomyces ruxii 6507 = assay: Antimicrobial activity (MIC)
[1] = system: Epidermophyton floccosum IFO 9045; assay: Antimicrobial activity (MIC); settings: IFO9045
[2] = system: Microsporum gypseum IFO 8231; assay: Antimicrobial activity (MIC); settings: Nannizzia gypsea, IFO8231
[3] = system: Candida albicans NHL 4019; assay: Antimicrobial activity (MIC); settings: NHL4019
[4] = system: Trichophyton mentagrophytes IFO 5812; assay: Antimicrobial activity (MIC); settings: IFO5812
[5] = system: Microsporum audounii IFO 6074; assay: Antimicrobial activity (MIC); settings: IFO6074
[6] = system: Fusarium moniliforme IAM 5062; assay: Antimicrobial activity (MIC); settings: Fusarium verticillioides, IAM5062
Candida albicans Yu-1200 = assay: Antimicrobial activity (MIC); settings: YU1200
[7] = system: Helminthosporium sesamum IAM 5012; assay: Antimicrobial activity (MIC); settings: IAM5012
[8] = system: Saccharomyces cerevisiae ATCC 9763; assay: Antimicrobial activity (MIC); settings: ATCC9763
[9] = system: Bacillus subtilis ATCC 6633; assay: Antimicrobial activity (MIC); settings: ATCC6633
[10] = system: Micrococcus lysodeikticus IFO 3333; assay: Antimicrobial activity (MIC); settings: Micrococcus luteus, IFO3333
[11] = system: Staphylococcus aureus FDA 209P; assay: Antimicrobial activity (MIC); settings: FDA209P
[12] = system: Pyricularia oryzae IAM 5016; assay: microbe, parasite or virus in culture; settings: IAM5016
Sarcina lutea ATCC 9341 = assay: Antimicrobial activity (MIC); settings: Micrococcus luteus, ATCC9341
[13] = system: Microsporum cookei IFO 8303; assay: Antimicrobial activity (MIC); settings: Paraphyton cookei, IFO8303
[14] = system: Aspergillus oryzae IMF 4014; assay: Antimicrobial activity (MIC); settings: IMF4014
[15] = system: Staphylococcus aureus Smith; assay: Antimicrobial activity (MIC)
[16] = system: Trichophyton rubrum NHL J; assay: Antimicrobial activity (MIC)
[17] = system: Aspergillus niger ATCC 9642; assay: Antimicrobial activity (MIC); settings: ATCC9642
[18] = system: Trichophyton tonsurans IFO 5928; assay: Antimicrobial activity (MIC); settings: IFO5928
[19] = system: Debaryomyces kloeckeri IFO 0015; assay: Antimicrobial activity (MIC); settings: IFO0015
[20] = system: Trichophyton mentagrophytes QM 248; assay: Antimicrobial activity (MIC); settings: QM248
[21] = system: Staphylococcus epidermidis ATCC 12228; assay: Antimicrobial activity (MIC); settings: ATCC12228
[22] = system: Streptococcus faecalis IFO 12964; assay: Antimicrobial activity (MIC); settings: Enterococcus faecalis, IFO12964
[23] = system: Penicillium chrysogenum ATCC 6010; assay: Antimicrobial activity (MIC); settings: ATCC6010
[24] = system: Staphylococcus aureus Terajima; assay: Antimicrobial activity (MIC)
[25] = system: Gibberella fujikuroi IAM 8046; assay: Antimicrobial activity (MIC); settings: Fusarium fujikuroi, IAM8046
[26] = system: Cladosporium fulvum IAM 5006; assay: Antimicrobial activity (MIC); settings: Fulvia fulva, IAM5006

Compound	MIC (Saccharomyces ruxii 6507) [µg/mL]	MIC [1] [µg/mL]	MIC [2] [µg/mL]	MIC [3] [µg/mL]	MIC [4] [µg/mL]	MIC [5] [µg/mL]	MIC [6] [µg/mL]	MIC (Candida albicans Yu-1200) [µg/mL]	MIC [7] [µg/mL]	MIC [8] [µg/mL]	MIC [9] [µg/mL]	MIC [10] [µg/mL]	MIC [11] [µg/mL]	MIC [12] [µg/mL]	MIC (Sarcina lutea ATCC 9341) [µg/mL]	MIC [13] [µg/mL]	MIC [14] [µg/mL]	MIC [15] [µg/mL]	MIC [16] [µg/mL]	MIC [17] [µg/mL]	further results
CCCCCCCCOc1ccccc1C(C)(O)Cn1ccnc1 (stereo not shown) [Compound 8]	0.39 (≈ 1.18 µM)	0.1 (≈ 0.303 µM)	0.006 (≈ 0.0182 µM)	12.5 (≈ 37.8 µM)	< 0.006	< 0.006	3.12 (≈ 9.44 µM)	12.5 (≈ 37.8 µM)	< 0.006	0.025 (≈ 0.0756 µM)	3.12 (≈ 9.44 µM)	1.56 (≈ 4.72 µM)	3.12 (≈ 9.44 µM)	< 0.006	0.2 (≈ 0.605 µM)	0.012 (≈ 0.0363 µM)	< 0.006	3.12 (≈ 9.44 µM)	< 0.006	0.025 (≈ 0.0756 µM)	MIC [18]: < 0.006 µg/mL; MIC [19]: 3.12 µg/mL (≈ 9.44 µM); MIC [20]: 0.006 µg/mL (≈ 0.0182 µM); MIC [21]: 0.39 µg/mL (≈ 1.18 µM); MIC [22]: 6.25 µg/mL (≈ 18.9 µM); MIC [23]: 3.12 µg/mL (≈ 9.44 µM); MIC [24]: 3.12 µg/mL (≈ 9.44 µM); MIC [25]: 0.78 µg/mL (≈ 2.36 µM); MIC [26]: 0.78 µg/mL (≈ 2.36 µM)
CCCCCCCCCOc1ccccc1C(C)(O)Cn1ccnc1 (stereo not shown) [Compound 59]	0.78 (≈ 2.26 µM)	0.2 (≈ 0.581 µM)	< 0.006	12.5 (≈ 36.3 µM)	< 0.006	< 0.006	6.25 (≈ 18.1 µM)	25 (≈ 72.6 µM)	< 0.006	12.5 (≈ 36.3 µM)	6.25 (≈ 18.1 µM)	1.56 (≈ 4.53 µM)	6.25 (≈ 18.1 µM)	< 0.006	0.05 (≈ 0.145 µM)	0.1 (≈ 0.29 µM)	< 0.006	6.25 (≈ 18.1 µM)	< 0.006	0.1 (≈ 0.29 µM)	MIC [18]: < 0.006 µg/mL; MIC [19]: 12.5 µg/mL (≈ 36.3 µM); MIC [20]: < 0.006 µg/mL; MIC [21]: 1.56 µg/mL (≈ 4.53 µM); MIC [22]: 6.25 µg/mL (≈ 18.1 µM); MIC [23]: 6.25 µg/mL (≈ 18.1 µM); MIC [24]: 6.25 µg/mL (≈ 18.1 µM); MIC [25]: 1.56 µg/mL (≈ 4.53 µM); MIC [26]: 1.56 µg/mL (≈ 4.53 µM)
